Biological target: T1, rat Kir3.1/3.4 (Rattus norvegicus, UniProt P48548+P63251)
T1 construct: expressed in transfected cells; host or cells: HEK293 (Human Embryonic Kidney 293), stably transfected
T1 sequence (P63251 1-501): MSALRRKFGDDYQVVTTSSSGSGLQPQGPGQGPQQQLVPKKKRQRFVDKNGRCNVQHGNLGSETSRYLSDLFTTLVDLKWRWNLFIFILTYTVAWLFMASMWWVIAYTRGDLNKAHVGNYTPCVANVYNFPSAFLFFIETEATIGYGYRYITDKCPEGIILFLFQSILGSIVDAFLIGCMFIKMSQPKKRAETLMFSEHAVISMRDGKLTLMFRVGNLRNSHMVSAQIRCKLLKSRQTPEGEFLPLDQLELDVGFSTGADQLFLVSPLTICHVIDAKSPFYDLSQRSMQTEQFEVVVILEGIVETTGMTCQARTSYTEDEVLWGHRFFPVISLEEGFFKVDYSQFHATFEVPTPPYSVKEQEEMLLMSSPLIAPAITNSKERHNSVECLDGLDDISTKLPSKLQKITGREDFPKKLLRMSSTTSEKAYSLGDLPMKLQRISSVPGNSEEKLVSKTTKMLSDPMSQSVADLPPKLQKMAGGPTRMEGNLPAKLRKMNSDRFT
T1 sequence (P48548 1-419): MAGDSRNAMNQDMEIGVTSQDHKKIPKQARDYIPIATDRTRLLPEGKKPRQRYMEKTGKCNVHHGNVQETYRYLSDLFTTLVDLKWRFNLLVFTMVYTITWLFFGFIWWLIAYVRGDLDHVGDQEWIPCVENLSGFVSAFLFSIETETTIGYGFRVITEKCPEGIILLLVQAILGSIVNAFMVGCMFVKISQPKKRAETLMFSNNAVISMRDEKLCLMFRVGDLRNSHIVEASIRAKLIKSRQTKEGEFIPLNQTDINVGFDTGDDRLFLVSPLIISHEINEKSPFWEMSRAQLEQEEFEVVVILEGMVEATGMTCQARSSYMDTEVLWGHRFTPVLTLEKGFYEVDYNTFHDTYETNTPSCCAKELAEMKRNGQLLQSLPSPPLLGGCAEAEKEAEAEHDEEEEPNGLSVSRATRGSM
Test: Kir3.1/3.4 Electrophysiology Method (manual whole-cell patch clamp)
Format: cell-based
Settings: Human Embryonic Kidney 293 stably transfected with rat Kir3.1/3.4; inhibition of leak-subtracted current at -140 mV
Description: Compound activity against the recombinant G-protein activated inward rectifier current encoded by the heterotetramer Kir3.1/3.4 was assessed using manual whole-cell patch technique. The heterotetramer forms the pore-forming channel that conducts the acetylcholine/adenosine-activated potassium current in the heart.
For whole-cell patch-clamp studies, cells (Human Embryonic Kidney 293 stably transfected with rat Kir3.1/3.4) were seeded onto glass coverslips before recordings were made. Cells were seeded in sterile 30 mm Petri dishes at a density to enable isolated cells to be selected for patch clamp experiments. The dishes were stored in a humidified, gassed (5% CO2) incubator at 37° C. until use.
Whole-cell patch-clamp recordings of membrane currents were made following gigaohm seal formation between the patch electrode and the cell using HEKA EPC-9/10 amplifiers controlled by Pulse Software (Ver8.5x/8.6x/8.7x, HEKA, Germany). Coverslips seeded with cells were placed in a recording chamber mounted on the stage of an inverted microscope. During the experiment, the cell of interest was continuously superfused with bather solution delivered via a cannula placed in close proximity to the cell to enable control of the extracellular solution environment. Only those cells with a current <−500 pA (current at −140 mV) were used for experiments. During experiments, series resistance was compensated by a minimum of 70%.
Electrophysiology voltage-step protocols and analysis of data were performed as follows. Data was sampled at 5 kHz, and filtered with a −3 dB bandwidth of 2.5 kHz. Cells were held at a voltage of −60 mV. Currents were evoked by a depolarising voltage step to +60 mV (100 ms) before a ramp-repolarisation (0.4 V·s^−1) to −140 mV (100 ms) before returning to −60 mV. The command waveform was repeatedly applied every 10 s throughout the experiment. Mean currents during 1-99% of the time at −140 mV were analysed using Pulsefit software (v8.x, HEKA, Germany). The voltage protocol was repeatedly applied to achieve a stable current baseline in bather before the test substance was superfused via the cannula in close proximity to the cell under investigation. The test substance was allowed to equilibrate during which time voltage protocol was repeatedly applied and recorded. On reaching steady-state inhibition, the cell was superfused with an identical bather solution containing zero external potassium chloride (replaced by equimolar NaCl). The identical current measurement was made in the absence of potassium to assess the passive leak at −140 mV. The leak current was subtracted from the control and steady-state drug current values. The percentage inhibition of the leak-subtracted current in the presence of test substance was calculated relative to the control leak-subtracted pre-drug value. Internal patch-pipette solution contained in mM: 110 KCl, 20 NaCl, 0.9 GTPγS, 5 Mg-ATP, 5 EGTA, 10 HEPES, pH7.2 corrected with KOH. The external superfusate composition in mM was: 150 (or 160) NaCl, 10 (or 0) KCl, 3 CaCl2, 1 MgCl, 10 HEPES, pH 7.4 corrected with NaOH.

IC50: < 0.5 µM
SMILES: CNC(=O)c1sc2[nH]nc(N3CCC(COCCN4CCCC4)CC3)c2c1-c1ccccc1 [Compound 25, N-methyl-4-phenyl-3-[4-(2-pyrrolidin-1-ylethoxymethyl)-1-piperidyl]-1H-thieno[2,3-c]pyrazole-5-carboxamide]

From patent US20140357662A1, “THIENO (2,3 - C) PYRAZOLES FOR USE AS POTASSIUM CHANNEL INHIBITORS” (XENTION LIMITED, priority 2011, published 2014)
